The subject of series [1] is Hs578T. Description: Cell vitality assay (ATP assay, CellTiter-Glo). The class given is cell-based. Conditions: Homo sapiens, Hs-578T; HS578T cell line, 72 h; Table Ib; read-out: IC50 ATP-Assay HS578T after 72 h. The protocol:
The CellTiter-Glo® Luminescent Cell Viability Assay (Promega Corporation. Madison, Wis., USA) is method a determining the number of viable cells in culture based on quantification of the ATP being present which is an indicator of metabolically active cells was used according to manufacturers protocol, In detail the assay was performed in a 96 well format were 1000 cells/well were incubated with indicated compound at concentration of 12.5 μM, 6.25 μM, 3.125 μM, 1.56 μM, 0.78 μM, 0.39 μM, 0.195 μM as well as DMSO control for 72 h in 100 μl cell culture medium. IC50 values were calculated as 50% of ATP amount compared to DMSO control.
Protocol for the CellTiter-Glo® Luminescent Cell Viability Assay • 1. Prepare opaque-walled multiwell plates with mammalian cells in culture medium, 100 μl per well for 96-well plates • 2. Prepare control wells containing medium without cells to obtain a value for background luminescence. • 3. Add the compound to be tested to experimental wells, and incubate according to culture protocol. • 4. Equilibrate the plate and its contents at room temperature for approximately 30 minutes. • 5. Add a volume of CellTiter-Glo® Reagent (Promega Corporation. Madison, Wis.) equal to the volume of cell culture medium present in each well. • 6. Mix contents for 2 minutes on an orbital shaker to induce cell lysis. • 7. Allow the plate to incubate at room temperature for 10 minutes to stabilize luminescent signal. • 8. Record luminescence on Microplate Luminometer LB96V (Berthold Tchnologies, Bad Wildbad, Germany). An integration time of 0.1 and 1 second per well
Background: In ATP-based viability assays light output follows the ATP content of the culture.

The test system of series [2] is Hs578T. Description: Matrigel outgrowth assay/branching assay. The series is classed as cell-based. Conditions: Homo sapiens, Hs-578T; HS578T cell line; Table Ib; read-out: Total branching inhibition in Matrigel HS578T. As to the method:
The Matrigel outgrowth assay is based on the ability of tumor cell to penetrate a solid gel of extracellular matrix proteins mimicking the metastasis formation in vivo. While cells with low invasive potential appear as roundish cell or cell cluster, cells with high invasive potential penetrate the Matrigel and form polymorphic structures. In detail 65 μl of Matrigel matrix (Matrigel™ Matrix, BD Biosciences, Bedford, Mass., USA) with a concentration of 3 mg/ml have been polymerized in 96 well plates for 1 h at 37° C. Subsequently 5000 cell/well were seeded into each well containing cell culture medium and indicated compound with concentrations of 3.125 μM, 1.56 μM and 0.78 μM as well as DMSO control. After 48 h, 72 h and 96 h images of cell were taken on an inverted microscope using a 5× objective (Zeiss Axiovert S100 microscope Carl Zeiss UK, Welwyn Garden City, UK). Only compound concentrations were total branching inhibition was evident were accounted as positive. Method was used as previously described, with some modifications (Thompson E W, et al. Association of increased basement membrane invasiveness with absence of estrogen receptor and expression of vimentin in human breast cancer cell lines. J Cell Physiol 1992; 150:534-44).

Series [3] relates to Hs578T. The experiment in a line: Wound healing migration assay. The class given is cell-based. Conditions: Homo sapiens, Hs-578T; HS578T cell line; Table Ib. As to the method:
This method mimics cell migration during wound healing in vivo. The basic steps involve creating a “wound” in a cell monolayer, capturing the images at the beginning and at regular intervals during cell migration to close the wound, and comparing the images to quantify the migration rate of the cells. In detail, 150000 cell/24 well have been seeded and allowed to form a monolayer overnight. Subsequently a “wound” or “scratch” has been performed with a 1000 μl pipette tip. The STDV of wound size is normally below 10% at time point t0. The assay was stopped by fixation with 0.05% Crystal violet/20% methanol when control scratches were closed. The assay was terminated between 48 h and 72 h depending on the migration potential of the indicated cell line. The “wounds” were visualized with a Zeiss Axiovert S100 microscope (Carl Zeiss UK, Welwyn Garden City, UK). The tested compounds were used at 12.5 μM, 6.25, 3.125 μM and DMSO control. IC50 values have been calculated as 50% wound size in between t0 and t48 or t72.

This passage reports IC50 and melting point results from patent US9169241B2, “Quinolinyloxyphenylsulfonamides” (Max-Planck-Gesellschaft Zur Forderung der Wissenschaften …, priority 2009, dated 2015).

One may read the melting point as the temperature, or range, at which the solid turns liquid.

Compound `CCOC(=O)COc1cc2nccc(Oc3ccc(NS(=O)(=O)c4ccccc4F)cc3F)c2cc1OC` [Example 92, {4-[2-Fluoro-4-(2-fluoro-benzenesulfonylamino)-phenoxy]-6-methoxy-quinolin-7-yloxy}-acetic acid ethyl ester] showed a melting point of 87 to 89 °C. In addition, in the series on Hs578T [1], the IC50 was no more than 12.5 µM. In addition, the IC50 in the series on Hs578T [2] is 10 to 25 µM. In the series with Hs578T [3], the IC50 was in the range of 12.5 to 50 µM.
Compound `COc1cc2c(Oc3ccc(NS(=O)(=O)c4ccccc4C(F)(F)F)cc3F)ccnc2cc1OCCCNC(=O)OC(C)(C)C` [Example 120, (3-{4-[2-Fluoro-4-(2-trifluoromethyl-benzenesulfonylamino)-phenoxy]-6-methoxy-quinolin-7-yloxy}-propyl)-carbamic acid tert-butyl ester] gave a melting point of 80 to 82 °C. In the series with Hs578T [1], the IC50 is 12.5 to 50 µM. For the same compound, the IC50 with Hs578T [2] lay within 10 to 25 µM. This compound yielded an IC50 in the series on Hs578T [3] of 12.5 to 50 µM.
`COc1cc2c(Oc3ccc(NS(=O)(=O)c4cc(F)ccc4F)cc3F)ccnc2cc1OCCCNC(=O)OC(C)(C)C` [Example 121, (3-{4-[4-(2,5-Difluoro-benzenesulfonylamino)-2-fluoro-phenoxy]-6-methoxy-quinolin-7-yloxy}-propyl)-carbamic acid tert-butyl ester] yielded a melting point of 115 to 118 °C. In addition, in the series with Hs578T [1], the IC50 was in the range of 12.5 to 50 µM. The IC50 in the series with Hs578T [2] lay within 10 to 25 µM. This compound yielded an IC50 in the series with Hs578T [3] of 12.5 to 50 µM.
For `COc1cc2c(Oc3cccc(NS(=O)(=O)c4c(F)cccc4F)c3)ccnc2cc1OCCCN1CCN(C)CC1` [Example 125, 2,6-Difluoro-N-(3-{6-methoxy-7-[3-(4-methyl-piperazin-1-yl)-propoxy]-quinolin-4-yloxy}-phenyl)-benzenesulfonamide], the melting point was in the range of 171 to 172 °C. The IC50 with Hs578T [1] is no more than 12.5 µM. Moreover, in the series with Hs578T [2], the IC50 was in the range of 10 to 25 µM. This compound also registered an IC50 in the series on Hs578T [3] of no more than 12.5 µM.
In turn, `COc1cc2c(Oc3cccc(NS(=O)(=O)c4ccccc4OC(F)(F)F)c3)ccnc2cc1OCCCN1CCN(C)CC1` [Example 126, N-(3-{6-Methoxy-7-[3-(4-methyl-piperazin-1-yl)-propoxy]-quinolin-4-yloxy}-phenyl)-2-trifluoromethoxy-benzenesulfonamide] came in with a melting point of 164 to 166 °C. Moreover, the IC50 in the series on Hs578T [1] is no more than 12.5 µM. Further, the IC50 in the series on Hs578T [2] was in the range of 10 to 25 µM. The IC50 in the series on Hs578T [3] was no more than 12.5 µM.
As for `COc1cc2c(Oc3cccc(NS(=O)(=O)c4cccs4)c3)ccnc2cc1OCCCN1CCN(C)CC1` [Example 129, Thiophene-2-sulfonic acid (3-{6-methoxy-7-[3-(4-methyl-piperazin-1-yl)-propoxy]-quinolin-4-yloxy}-phenyl)-amide], the melting point fell in the range of 188 to 189 °C. Further, the IC50 in the series on Hs578T [1] is no more than 12.5 µM. Also, the IC50 in the series on Hs578T [2] was no more than 10 µM. Besides, the IC50 in the series on Hs578T [3] is no more than 12.5 µM.
For the compound `COc1cc2c(Oc3cccc(NS(=O)(=O)c4ccc(Cl)s4)c3)ccnc2cc1OCCCN1CCN(C)CC1` [Example 130, 5-Chloro-thiophene-2-sulfonic acid (3-{6-methoxy-7-[3-(4-methyl-piperazin-1-yl)-propoxy]-quinolin-4-yloxy}-phenyl)-amide], the melting point is 162 to 163 °C. Moreover, the IC50 with Hs578T [1] was no more than 12.5 µM. Further, the IC50 in the series on Hs578T [2] was no more than 10 µM. Moreover, the IC50 in the series with Hs578T [3] lay in the range of 12.5 to 50 µM.
In turn, `COc1cc2c(Oc3cccc(NS(=O)(=O)c4ccc(C)s4)c3)ccnc2cc1OCCCN1CCN(C)CC1` [Example 131, 5-Methyl-thiophene-2-sulfonic acid (3-{6-methoxy-7-[3-(4-methyl-piperazin-1-yl)-propoxy]-quinolin-4-yloxy}-phenyl)-amide] returned a melting point of 147 to 149 °C. Besides, in the series with Hs578T [1], the IC50 was no more than 12.5 µM. Also, the IC50 in the series on Hs578T [2] was 10 to 25 µM. Besides, the IC50 in the series on Hs578T [3] fell in the range of 12.5 to 50 µM.
For `COc1cc2c(Oc3cccc(NS(=O)(=O)c4sc(NC(C)=O)nc4C)c3)ccnc2cc1OCCCN1CCN(C)CC1` [Example 132, N-[5-(3-{6-Methoxy-7-[3-(4-methyl-piperazin-1-yl)-propoxy]-quinolin-4-yloxy}-phenylsulfamoyl)-4-methyl-thiazol-2-yl]-acetamide] the same measures were 148 to 150 °C, 12.5 to 50 µM, 10 to 25 µM and 12.5 to 50 µM.
Take `COc1cc2c(Oc3cccc(NS(=O)(=O)c4ccsc4)c3)ccnc2cc1OCCCN1CCN(C)CC1` [Example 133, Thiophene-3-sulfonic acid (3-{6-methoxy-7-[3-(4-methyl-piperazin-1-yl)-propoxy]-quinolin-4-yloxy}-phenyl)-amide]: the melting point lay within 176 to 178 °C. Also, the IC50 in the series with Hs578T [1] was no more than 12.5 µM. Besides, the IC50 in the series on Hs578T [2] is no more than 10 µM. The same compound had an IC50 in the series on Hs578T [3] of no more than 12.5 µM.
As to `COC(=O)c1sccc1S(=O)(=O)Nc1cccc(Oc2ccnc3cc(OCCCN4CCN(C)CC4)c(OC)cc23)c1` [Example 135, 3-(3-{6-Methoxy-7-[3-(4-methyl-piperazin-1-yl)-propoxy]-quinolin-4-yloxy}-phenylsulfamoyl)-thiophene-2-carboxylic acid methyl ester], the melting point lay within 84 to 86 °C. The IC50 in the series on Hs578T [1] lay in the range of 12.5 to 50 µM. Also, in the series with Hs578T [2], the IC50 was 10 to 25 µM. In the series with Hs578T [3], this compound returned an IC50 of 12.5 to 50 µM.
`COc1cc2c(Oc3cccc(NS(=O)(=O)c4ccco4)c3)ccnc2cc1OCCCN1CCN(C)CC1` [Example 137, Furan-2-sulfonic acid (3-{6-methoxy-7-[3-(4-methyl-piperazin-1-yl)-propoxy]-quinolin-4-yloxy}-phenyl)-amide] yielded a melting point of 176 to 177 °C. For the same compound, in the series on Hs578T [1], the IC50 was 12.5 to 50 µM. The IC50 in the series with Hs578T [2] lay within 10 to 25 µM. The compound further displayed an IC50 in the series on Hs578T [3] of 12.5 to 50 µM.
`COc1cc2c(Oc3cccc(NS(=O)(=O)c4c(C)noc4C)c3)ccnc2cc1OCCCN1CCN(C)CC1` [Example 138, 3,5-Dimethyl-isoxazole-4-sulfonic acid (3-{6-methoxy-7-[3-(4-methyl-piperazin-1-yl)-propoxy]-quinolin-4-yloxy}-phenyl)-amide] showed a melting point of 200 to 202 °C. Also, the IC50 in the series on Hs578T [1] lay within 12.5 to 50 µM. Also, the IC50 with Hs578T [2] fell in the range of 10 to 25 µM. Further, the IC50 in the series with Hs578T [3] was in the range of 12.5 to 50 µM.
As to `COc1cc2c(Oc3cccc(NS(=O)(=O)c4ccn(C)n4)c3)ccnc2cc1OCCCN1CCN(C)CC1` [Example 139, 1-Methyl-1H-pyrazole-3-sulfonic acid (3-{6-methoxy-7-[3-(4-methyl-piperazin-1-yl)-propoxy]-quinolin-4-yloxy}-phenyl)-amide], the melting point lay within 87 to 89 °C. Moreover, the IC50 in the series with Hs578T [1] is 12.5 to 50 µM. Moreover, in the series with Hs578T [2], the IC50 was 10 to 25 µM. Besides, the IC50 in the series on Hs578T [3] lay within 12.5 to 50 µM.
As to `COc1cc2c(Oc3ccc(NS(=O)(=O)c4cnc(C)[nH]4)cc3F)ccnc2cc1OCCCN1CCOCC1` [Example 169, 2-Methyl-3H-imidazole-4-sulfonic acid {3-fluoro-4-[6-methoxy-7-(3-morpholin-4-yl-propoxy)-quinolin-4-yloxy]-phenyl}-amide], the IC50 in the series on Hs578T [1] was 12.5 to 50 µM; in the series with Hs578T [2], 10 to 25 µM; in the series on Hs578T [3], 12.5 to 50 µM.
On to `COc1cc2c(Oc3cc(NS(=O)(=O)c4cc(F)ccc4F)ccc3F)ccnc2cc1OCCCN1CCC(C)CC1` [Example 187, 2,5-Difluoro-N-(4-fluoro-3-{6-methoxy-7-[3-(4-methyl-piperidin-1-yl)-propoxy]-quinolin-4-yloxy}-phenyl)-benzenesulfonamide], for which the values for the IC50 in the series on Hs578T [1], in the series on Hs578T [2] and with Hs578T [3] were no more than 12.5 µM, no more than 10 µM and no more than 12.5 µM, respectively.
